# Assay results: patent publication US8697898B2, “Medical application of lipid derivatives of dopamine and the methods of their production” (Instytut Medycyny Doswiadczalnej i Klinicznej im. M. …, priority 2011, dated 2014)
# Experiments:
# awake Wistar rats = assay: Respiration in normoxia and hypoxia in the awake rat (plethysmographic chamber); format: in vivo; settings: for minute lung ventilation after administration of haloperidol and N-oleoyl-dopamine: haloperidol 0.9 mg/kg i.p. prior to N-oleoyl-dopamine 40 mg/kg i.p.
# Procedure: The study was performed in awake Wistar rats in a computerized plethysmographic chamber for small rodents. Respiratory frequency, tidal volume and pulmonary ventilation were measured. The experimental protocol included recordings in normoxia (breathing with atmospheric air), two levels of hypoxic stimulus (8% and 12% O2 in N2), intraperitoneal (i.p.) administration of N-oleoyl-dopamine (in a dose of 40 mg/kg) and repeated recordings for both normoxic and hypoxic states. Additionally, further experiments with the dopamine receptor antagonist haloperidol (in a dose of 0.9 mg/kg, i.p.) were performed. In those experiments, haloperidol was administered prior to N-oleoyl-dopamine and the recordings according the above-mentioned protocol were repeated.
# The study was performed in awake Wistar rats in a computerized plethysmographic chamber for small rodents. Respiratory frequency, tidal volume and pulmonary ventilation were measured. The experimental protocol included recordings for normoxia (breathing with atmospheric air), for two levels of hypoxic stimulus (8% and 12% O2 in N2), intraperitoneal (i.p.) administration of 3′-O-methyl-N-oleoyl-dopamine (in a dose of 40 mg/kg), and then repeated recordings for both normoxic and hypoxic states.
# [1] = tested on: rat model of Parkinson's disease
# Procedure: Symptoms of the Parkinson's disease, particularly muscle rigidity during flexion and extension movements in the ankle joint, were induced with reserpine (2.5 mg/kg, i.p.) and a-methyl-tyrosine (α-MT, 250 mg/kg, i.p.) administered at a 16-h interval. Afterwards, 3′-O-methyl-N-oleoyl-dopamine (O-Me-OLDA) was administered at a dose of 10 mg/kg and the muscular tone was measured using electromyographic (EMG) techniques. The control groups consisted of a) only vehiculum-treated animals in which no symptoms of Parkinson's disease were induced (control), b) animals who received only 3′-O-methyl-N-oleoyl-dopamine (O-Me-OLDA) and c) animals in which symptoms of Parkinson's disease were induced (reserpine+α-MT), but no other treatment was introduced.
# This method is a pharmacological tool for modeling the typical, dopamine-deficiency-related brain symptoms of Parkinson's disease in rats.
# [2] = tested on: anesthetized, paralyzed and artificially ventilated Wistar rats; assay: Respiratory response to hypoxia in the anesthetized rat (integrated phrenic nerve activity); format: in vivo
# Procedure: The study was performed in anesthetized, paralyzed and artificially ventilated Wistar rats. During the experiments, the integrated activity of the phrenic nerve was recorded. This activity reflects the frequency and tidal volume; their product represents the index of minute lung ventilation. The experimental protocol consisted of control recordings for two levels of the hypoxic stimulus: 14% and 11% O2 in N2. Afterwards, N-oleoyl-dopamine in a dose of 20 mg/kg was given and the recordings were repeated. Additionally, experiments with two dopamine receptor antagonists were performed: first, with the penetrating through the blood-brain barrier D2 dopamine receptor antagonist haloperidol and second, with the non-penetrating through the blood-brain-barrier domperidone. In these studies, after the control recordings, haloperidol (in a dose of 3 mg/kg) or domperidone (in a dose of 0.3 mg/kg) were administered and the recordings repeated. Then, N-oleoyl-dopamine was given and the recordings were repeated.
# [3] = tested on: membrane system of the rat brain; assay: Binding to the rat brain membrane system after intraperitoneal administration (TLC of brain lipids); format: in vivo, Wistar rats; settings: 20 mg/kg intraperitoneal
# Procedure: N-oleoyl-dopamine was administered to Wistar rats at a dose of 20 mg/kg. After 1, 2, 3 or 24 hours the rat was sacrificed and the brain was resected. From the tissue, the whole lipid fraction, containing all lipids of the brain and the membrane fraction of the rat brain were obtained. Total lipids were obtained by homogenization of the brain in a mixture of chloroform and methanol 2:1 followed by an extraction of the water-soluble fractions and evaporation of the solvent. The membrane phase was obtained according to Xu et al. (Xu, 1998) and extracted with chloroform to obtain membrane lipids. All obtained samples were analyzed by the thin layer chromatography TLC on silica gel plates 60 using a mixture of chloroform and methanol 95:5 as the mobile phase and N-oleoyl-dopamine as the standard. The Retention Factor (Rf) for the N-oleoyl-dopamine standard was equal to 0.24-0.26. At the same level (the same Rf=0.24-0.29) there were bands corresponding to N-oleoyl-dopamine in the biological samples, that is after systemic N-oleoyl-dopamine injection, but not in the control samples obtained with no N-oleoyl-dopamine injection.
# [4] = molecular target: T1, catechol-O-methyltransferase (Homo sapiens, UniProt P21964); assay: O-methylation by catechol-O-methyltransferase in vitro; format: in vitro ADME; settings: PBS pH=8, 10 mM magnesium ions, S-adenosyl-L-methionine, one hour at 37° C.
# T1 sequence (P21964 1-271): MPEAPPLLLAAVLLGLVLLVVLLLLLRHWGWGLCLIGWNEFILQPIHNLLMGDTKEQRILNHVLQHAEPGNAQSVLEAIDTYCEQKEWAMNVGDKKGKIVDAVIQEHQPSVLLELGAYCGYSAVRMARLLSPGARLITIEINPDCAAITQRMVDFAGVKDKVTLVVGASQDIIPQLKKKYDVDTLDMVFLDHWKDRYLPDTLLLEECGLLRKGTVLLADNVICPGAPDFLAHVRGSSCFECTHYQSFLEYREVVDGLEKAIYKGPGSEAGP
# Procedure: N-oleoyl-dopamine underwent the reaction of methylation with the catechol-O-methyltransferase in PBS buffer pH=8 with 10 mM magnesium ions as the co-factor and S-adenosyl-L-methionine as the donor of methyl groups. The reaction was conducted for one hour at 37° C. After the termination of the reaction, the reaction mixture was extracted with chloroform to obtain an organic and an aqueous phase. Both phases were analyzed using UV/VIS spectrophotometry and high performance liquid chromatography with mass detection (HPLC/MS). It was shown that the organic phase contained both N-oleoyl-dopamine and 3′-O-methyl-N-oleoyl-dopamine (the substrate and the product of the reaction, respectively), and the aqueous phase S-adenosyl-L-methionine and its demethylated derivative, S-adenosyl-L-homocystein (the substrate and the product of the reaction, respectively). The obtained results were additionally confirmed with the mass spectrometry (MS).
# [5] = after injection into the carotid artery; cited from earlier work
# rat = settings: cited from earlier work
# [6] = N-oleoyl-dopamine given after domperidone 0.3 mg/kg
# [7] = N-oleoyl-dopamine given after haloperidol 3 mg/kg
penetration into the brain tissue [3],O-methylation by catechol-O-methyltransferase [4],Structure (SMILES),"peak respiratory response after administration (awake Wistar rats; 8% hypoxia, 40 mg/kg i.p.)","resting ventilation during breathing with atmospheric oxygen after administration (awake Wistar rats; normoxia, 40 mg/kg i.p.)","level of muscle tone elevated by reserpine (force needed for flexion and extension of the ankle joint) ([1]; 10 mg/kg, FIG. 1)","muscle rigidity in rats showing symptoms of Parkinson's disease ([1]; reserpine 2.5 mg/kg i.p. + α-MT 250 mg/kg i.p., compound 10 mg/kg)","respiration in the inhibitory phase [2, 6]","response to hypoxia in the stimulatory phase [2, 6]","respiratory response in the first stimulatory phase [2, 7]","respiratory response in the second inhibitory phase [2, 7]",minute lung ventilation after administration of haloperidol and N-oleoyl-dopamine (awake Wistar rats; 8% hypoxia),"peak respiratory response after administration (awake Wistar rats; 12% hypoxia, 40 mg/kg i.p.)",minute lung ventilation after administration of haloperidol and N-oleoyl-dopamine (awake Wistar rats; 12% hypoxia),peak respiratory response after N-oleoyl-dopamine under blockade of the dopaminergic system (awake Wistar rats; haloperidol 0.9 mg/kg i.p. prior to N-oleoyl-dopamine),ability to penetrate into the brain [5],locomotive activity (rat),respiration in the second inhibitory phase of the hypoxic response ([2]; drug alone)
–,–,CCCCCCCC/C=C\CCCCCCCC(=O)NCCc1ccc(O)c(OC)c1 [3′-O-methyl-N-oleoyl-dopamine],1939±255 ml/min/kg body weight,779.7±148.7 ml/min/kg body weight,decreases nearly down to the control level,abolished muscle rigidity,–,–,–,–,–,–,–,–,–,–,–
penetrates,undergoes the O-methylation,CCCCCCCC/C=C\CCCCCCCC(=O)NCCc1ccc(O)c(O)c1 [N-oleoyl-dopamine],1338.3±49.5 ml/min/kg body weight,–,–,–,still diminished the respiration,did not change the response to hypoxia,did not restore the respiratory response,still diminished it,1947.3±66.5 ml/min/kg body weight,856.6±73.7 ml/min/kg body weight,1484.0±92.3 ml/min/kg body weight,only a slight reduction,ability to penetrate into the brain,increases the locomotive activity,–
–,–,"O=C(CCCN1CCC(O)(c2ccc(Cl)cc2)CC1)c1ccc(F)cc1 [haloperidol, reference compound]",–,–,–,–,–,–,–,–,–,–,–,–,–,–,diminished the respiration
